# According to ChEMBL document CHEMBL5661979, “Pharmacological inhibition of BMK1 suppresses tumor growth through promyelocytic leukemia protein” (Cancer Cell, 2010):
# What was measured:
# [1] = target: T1, Insulin receptor (Homo sapiens, UniProt P06213); experiment: Inhibition of INSR in human HeLa cells lysate at 50 uM pre incubated for 15 mins followed by ADP acyl phosphate probe addition and measured after 10 mins by LC-MS/MS analysis relative to control; assay type: subcellular; conditions: time 25.0 min
# T1 sequence (P06213 28-758 limits assumed): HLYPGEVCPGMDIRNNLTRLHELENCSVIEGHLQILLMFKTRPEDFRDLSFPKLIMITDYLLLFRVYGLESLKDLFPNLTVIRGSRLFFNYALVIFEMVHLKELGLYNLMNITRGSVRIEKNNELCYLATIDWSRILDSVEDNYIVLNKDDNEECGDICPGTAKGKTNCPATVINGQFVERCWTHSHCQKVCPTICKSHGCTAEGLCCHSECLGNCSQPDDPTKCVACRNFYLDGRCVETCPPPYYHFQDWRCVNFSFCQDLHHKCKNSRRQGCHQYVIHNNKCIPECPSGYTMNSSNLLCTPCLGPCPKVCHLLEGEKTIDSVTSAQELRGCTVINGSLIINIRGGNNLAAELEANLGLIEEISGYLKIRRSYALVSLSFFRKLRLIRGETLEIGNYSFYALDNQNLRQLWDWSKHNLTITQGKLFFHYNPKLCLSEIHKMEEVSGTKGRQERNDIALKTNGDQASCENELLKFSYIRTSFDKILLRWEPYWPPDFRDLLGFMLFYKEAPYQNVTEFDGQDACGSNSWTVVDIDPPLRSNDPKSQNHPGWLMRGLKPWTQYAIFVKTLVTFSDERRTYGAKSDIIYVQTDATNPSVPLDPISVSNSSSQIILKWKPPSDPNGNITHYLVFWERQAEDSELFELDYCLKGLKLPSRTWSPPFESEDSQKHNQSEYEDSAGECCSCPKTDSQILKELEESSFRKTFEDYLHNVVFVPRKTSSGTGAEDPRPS
# T1 sequence (P06213 763-1382 limits assumed): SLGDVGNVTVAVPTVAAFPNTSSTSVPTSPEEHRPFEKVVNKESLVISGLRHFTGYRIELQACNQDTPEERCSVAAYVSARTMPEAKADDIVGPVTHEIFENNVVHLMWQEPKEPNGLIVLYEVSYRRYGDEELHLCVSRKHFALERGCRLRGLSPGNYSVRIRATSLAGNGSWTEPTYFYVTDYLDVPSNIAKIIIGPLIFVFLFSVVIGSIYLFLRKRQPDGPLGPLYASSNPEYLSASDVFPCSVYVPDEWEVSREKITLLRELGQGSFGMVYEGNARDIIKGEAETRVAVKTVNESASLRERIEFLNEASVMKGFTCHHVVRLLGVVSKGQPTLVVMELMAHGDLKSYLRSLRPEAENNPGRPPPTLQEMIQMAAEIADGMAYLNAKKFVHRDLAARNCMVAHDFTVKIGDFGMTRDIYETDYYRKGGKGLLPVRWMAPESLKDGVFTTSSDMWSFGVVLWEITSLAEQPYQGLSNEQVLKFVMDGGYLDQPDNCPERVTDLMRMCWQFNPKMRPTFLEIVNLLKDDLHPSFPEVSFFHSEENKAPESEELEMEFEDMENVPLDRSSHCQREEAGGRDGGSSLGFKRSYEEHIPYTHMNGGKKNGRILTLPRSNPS
# [2] = target: Phosphatidylinositol 4-kinase beta (Homo sapiens, UniProt Q9UBF8); experiment: Inhibition of PIK4CB in human HeLa cells lysate pre incubated for 15 mins followed by ATP acyl phosphate probe addition and measured after 10 mins by LC-MS/MS analysis; assay type: subcellular
# [3] = target: T2, EKC/KEOPS complex subunit TP53RK (Homo sapiens) (UniProt Q96S44); experiment: Inhibition of PRPK in human HeLa cells lysate at 10 uM pre incubated for 15 mins followed by ADP acyl phosphate probe addition and measured after 10 mins by LC-MS/MS analysis relative to control; assay type: subcellular; conditions: time 25.0 min
# T2 sequence (whole entry): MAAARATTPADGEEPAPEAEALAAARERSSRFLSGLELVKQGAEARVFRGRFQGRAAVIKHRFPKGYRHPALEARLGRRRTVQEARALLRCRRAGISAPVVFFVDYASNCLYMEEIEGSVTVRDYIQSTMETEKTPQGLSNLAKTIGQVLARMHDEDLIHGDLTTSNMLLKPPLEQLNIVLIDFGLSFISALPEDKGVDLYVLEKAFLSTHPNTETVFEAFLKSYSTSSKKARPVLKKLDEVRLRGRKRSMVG
# [4] = Inhibition of MSK1/2 domain 1 in human HeLa cells lysate at 2 uM pre incubated for 15 mins followed by ATP acyl phosphate probe addition and measured after 10 mins by LC-MS/MS analysis relative to control; conditions: 25 min, condition cancer
# [5] = target: Tyrosine-protein kinase Fer (Homo sapiens, UniProt P16591); experiment: Inhibition of FER in human HeLa cells lysate at 2 uM pre incubated for 15 mins followed by ATP acyl phosphate probe addition and measured after 10 mins by LC-MS/MS analysis relative to control; assay type: subcellular; conditions: time 25.0 min
# Chain of Tyrosine-protein kinase Fer (P16591 whole entry, looked up): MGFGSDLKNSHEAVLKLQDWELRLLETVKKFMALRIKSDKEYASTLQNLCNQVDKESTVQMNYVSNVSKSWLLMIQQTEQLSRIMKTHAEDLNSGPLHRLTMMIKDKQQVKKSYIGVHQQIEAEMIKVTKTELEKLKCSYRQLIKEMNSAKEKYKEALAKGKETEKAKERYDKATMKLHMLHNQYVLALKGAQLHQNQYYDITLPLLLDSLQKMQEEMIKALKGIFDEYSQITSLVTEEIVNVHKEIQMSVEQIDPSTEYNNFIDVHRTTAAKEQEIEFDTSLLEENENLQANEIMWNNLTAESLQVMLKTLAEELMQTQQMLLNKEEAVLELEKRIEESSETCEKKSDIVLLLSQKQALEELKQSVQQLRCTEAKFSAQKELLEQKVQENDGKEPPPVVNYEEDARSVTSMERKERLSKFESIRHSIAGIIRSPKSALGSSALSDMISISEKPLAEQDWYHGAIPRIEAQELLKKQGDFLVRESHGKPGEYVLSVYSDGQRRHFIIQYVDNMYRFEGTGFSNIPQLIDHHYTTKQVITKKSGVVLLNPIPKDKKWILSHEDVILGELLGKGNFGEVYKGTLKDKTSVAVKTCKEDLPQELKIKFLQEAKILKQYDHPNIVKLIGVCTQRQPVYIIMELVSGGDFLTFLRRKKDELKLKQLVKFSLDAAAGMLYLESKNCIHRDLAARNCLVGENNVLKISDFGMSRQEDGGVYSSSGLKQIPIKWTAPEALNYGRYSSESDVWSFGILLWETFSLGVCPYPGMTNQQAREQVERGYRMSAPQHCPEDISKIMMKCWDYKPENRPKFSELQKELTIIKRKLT
# [6] = target: Macrophage-stimulating protein receptor (Homo sapiens, UniProt Q04912); experiment: Inhibition of RON in human HeLa cells lysate pre incubated for 15 mins followed by ADP acyl phosphate probe addition and measured after 10 mins by LC-MS/MS analysis; assay type: subcellular
# [7] = Inhibition of CK1g1/g2/g3 in human HeLa cells lysate at 10 uM pre incubated for 15 mins followed by ADP acyl phosphate probe addition and measured after 10 mins by LC-MS/MS analysis relative to control; conditions: 25 min, condition cancer
# [8] = target: Tyrosine-protein kinase CSK (Homo sapiens, UniProt P41240); experiment: Inhibition of CSK in human HeLa cells lysate pre incubated for 15 mins followed by ATP acyl phosphate probe addition and measured after 10 mins by LC-MS/MS analysis; assay type: subcellular
# Chain of Tyrosine-protein kinase CSK (P41240 whole entry, the tested form may be a part): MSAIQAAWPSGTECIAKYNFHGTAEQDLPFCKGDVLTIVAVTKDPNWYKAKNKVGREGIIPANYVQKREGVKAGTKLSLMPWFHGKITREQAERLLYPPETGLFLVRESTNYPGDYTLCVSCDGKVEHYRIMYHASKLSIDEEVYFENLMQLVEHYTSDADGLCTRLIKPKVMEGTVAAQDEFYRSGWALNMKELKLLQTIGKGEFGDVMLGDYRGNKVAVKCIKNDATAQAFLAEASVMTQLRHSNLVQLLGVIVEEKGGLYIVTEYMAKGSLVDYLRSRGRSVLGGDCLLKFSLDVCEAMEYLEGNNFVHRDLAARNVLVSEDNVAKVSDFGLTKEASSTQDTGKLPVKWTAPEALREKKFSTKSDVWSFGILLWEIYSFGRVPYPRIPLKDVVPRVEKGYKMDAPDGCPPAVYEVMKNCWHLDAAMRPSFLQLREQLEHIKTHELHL
# [9] = target: Ribosomal protein S6 kinase alpha-5 (Homo sapiens, UniProt O75582); experiment: Inhibition of MSK1 domain 1 in human HeLa cells lysate at 50 uM pre incubated for 15 mins followed by ADP acyl phosphate probe addition and measured after 10 mins by LC-MS/MS analysis relative to control; assay type: subcellular; conditions: time 25.0 min
# [10] = target: Ephrin type-B receptor 4 (Homo sapiens) (UniProt P54760); experiment: Inhibition of EphB4 in human HeLa cells lysate at 10 uM pre incubated for 15 mins followed by ATP acyl phosphate probe addition and measured after 10 mins by LC-MS/MS analysis relative to control; assay type: subcellular; conditions: time 25.0 min
# [11] = target: T3, Phosphatidylinositol 5-phosphate 4-kinase type-2 gamma (Homo sapiens) (UniProt Q8TBX8); experiment: Inhibition of PIP5K2C LIP2 site in human HeLa cells lysate at 2 uM pre incubated for 15 mins followed by ATP acyl phosphate probe addition and measured after 10 mins by LC-MS/MS analysis relative to control; assay type: subcellular; conditions: time 25.0 min
# T3 sequence (whole entry): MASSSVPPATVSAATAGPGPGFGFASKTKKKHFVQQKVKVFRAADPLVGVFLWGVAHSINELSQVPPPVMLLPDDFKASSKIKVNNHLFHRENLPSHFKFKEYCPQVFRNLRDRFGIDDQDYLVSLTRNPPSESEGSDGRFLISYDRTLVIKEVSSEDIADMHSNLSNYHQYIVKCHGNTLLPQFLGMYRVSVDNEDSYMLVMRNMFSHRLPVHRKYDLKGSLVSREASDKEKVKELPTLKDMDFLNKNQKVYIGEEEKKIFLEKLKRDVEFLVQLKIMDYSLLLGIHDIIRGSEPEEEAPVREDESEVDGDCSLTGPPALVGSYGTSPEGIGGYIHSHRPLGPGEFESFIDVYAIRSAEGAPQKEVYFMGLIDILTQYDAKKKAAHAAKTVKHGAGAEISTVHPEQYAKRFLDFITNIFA
# [12] = target: Serine/threonine-protein kinase Chk2 (Homo sapiens, UniProt O96017); experiment: Inhibition of CHK2 in human HeLa cells lysate at 50 uM pre incubated for 15 mins followed by ADP acyl phosphate probe addition and measured after 10 mins by LC-MS/MS analysis relative to control; assay type: subcellular; conditions: time 25.0 min
# [13] = target: T4, Dual specificity mitogen-activated protein kinase kinase 3 (Homo sapiens) (UniProt P46734); experiment: Inhibition of MAP2K3 in human HeLa cells lysate at 10 uM pre incubated for 15 mins followed by ADP acyl phosphate probe addition and measured after 10 mins by LC-MS/MS analysis relative to control; assay type: subcellular; conditions: time 25.0 min
# T4 sequence (whole entry): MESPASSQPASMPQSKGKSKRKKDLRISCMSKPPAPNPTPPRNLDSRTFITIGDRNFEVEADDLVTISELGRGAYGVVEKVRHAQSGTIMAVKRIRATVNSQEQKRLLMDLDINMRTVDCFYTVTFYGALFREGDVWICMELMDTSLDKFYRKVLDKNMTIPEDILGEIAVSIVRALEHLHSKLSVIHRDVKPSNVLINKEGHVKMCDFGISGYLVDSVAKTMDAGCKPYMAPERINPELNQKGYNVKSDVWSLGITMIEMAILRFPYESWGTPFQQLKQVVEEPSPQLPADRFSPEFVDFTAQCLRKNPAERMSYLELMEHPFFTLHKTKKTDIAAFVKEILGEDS
# [14] = target: T1, Insulin receptor; experiment: Inhibition of INSR in human HeLa cells lysate pre incubated for 15 mins followed by ADP acyl phosphate probe addition and measured after 10 mins by LC-MS/MS analysis; assay type: subcellular
# [15] = target: Serine/threonine-protein kinase LATS2 (Homo sapiens) (UniProt Q9NRM7); experiment: Inhibition of LATS2 in human HeLa cells lysate at 2 uM pre incubated for 15 mins followed by ADP acyl phosphate probe addition and measured after 10 mins by LC-MS/MS analysis relative to control; assay type: subcellular; conditions: time 25.0 min
# Chain of Serine/threonine-protein kinase LATS2 (Homo sapiens) (Q9NRM7 whole entry): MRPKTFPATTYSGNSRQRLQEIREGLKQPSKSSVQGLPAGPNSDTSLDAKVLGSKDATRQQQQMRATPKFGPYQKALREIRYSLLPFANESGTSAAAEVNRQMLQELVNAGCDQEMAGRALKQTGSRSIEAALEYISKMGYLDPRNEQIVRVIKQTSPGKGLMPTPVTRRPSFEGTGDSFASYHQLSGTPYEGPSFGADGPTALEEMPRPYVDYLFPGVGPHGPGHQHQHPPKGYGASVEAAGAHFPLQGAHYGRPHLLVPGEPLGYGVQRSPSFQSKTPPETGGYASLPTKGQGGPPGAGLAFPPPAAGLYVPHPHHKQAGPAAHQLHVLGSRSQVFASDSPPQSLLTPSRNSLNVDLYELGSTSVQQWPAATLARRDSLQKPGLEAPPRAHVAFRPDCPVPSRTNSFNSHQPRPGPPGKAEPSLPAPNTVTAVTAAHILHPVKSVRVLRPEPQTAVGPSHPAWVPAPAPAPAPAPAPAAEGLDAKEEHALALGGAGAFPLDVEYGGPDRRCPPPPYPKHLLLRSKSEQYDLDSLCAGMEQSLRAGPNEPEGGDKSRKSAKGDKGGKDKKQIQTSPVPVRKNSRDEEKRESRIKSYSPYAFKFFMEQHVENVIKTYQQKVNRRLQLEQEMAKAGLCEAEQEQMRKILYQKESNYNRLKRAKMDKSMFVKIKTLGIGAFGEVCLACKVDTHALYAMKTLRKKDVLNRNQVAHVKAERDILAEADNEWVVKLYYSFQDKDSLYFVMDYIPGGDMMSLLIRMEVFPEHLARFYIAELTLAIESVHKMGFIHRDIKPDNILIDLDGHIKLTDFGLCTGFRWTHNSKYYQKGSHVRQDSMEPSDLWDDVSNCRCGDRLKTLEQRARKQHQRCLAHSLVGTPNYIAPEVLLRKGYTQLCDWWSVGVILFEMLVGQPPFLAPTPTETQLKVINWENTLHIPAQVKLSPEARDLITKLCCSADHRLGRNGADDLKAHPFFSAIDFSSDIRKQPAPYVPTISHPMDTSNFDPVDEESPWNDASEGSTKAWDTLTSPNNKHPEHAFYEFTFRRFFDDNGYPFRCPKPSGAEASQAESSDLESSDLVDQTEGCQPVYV
# [16] = target: DNA-dependent protein kinase catalytic subunit (Homo sapiens, UniProt P78527); experiment: Inhibition of PRKDC in human HeLa cells lysate pre incubated for 15 mins followed by ADP acyl phosphate probe addition and measured after 10 mins by LC-MS/MS analysis; assay type: subcellular
# [17] = target: Glycogen synthase kinase-3 alpha (Homo sapiens, UniProt P49840); experiment: Inhibition of GSK3A in human HeLa cells lysate at 2 uM pre incubated for 15 mins followed by ATP acyl phosphate probe addition and measured after 10 mins by LC-MS/MS analysis relative to control; assay type: subcellular; conditions: time 25.0 min
# Chain of Glycogen synthase kinase-3 alpha (P49840 2-483 limits assumed): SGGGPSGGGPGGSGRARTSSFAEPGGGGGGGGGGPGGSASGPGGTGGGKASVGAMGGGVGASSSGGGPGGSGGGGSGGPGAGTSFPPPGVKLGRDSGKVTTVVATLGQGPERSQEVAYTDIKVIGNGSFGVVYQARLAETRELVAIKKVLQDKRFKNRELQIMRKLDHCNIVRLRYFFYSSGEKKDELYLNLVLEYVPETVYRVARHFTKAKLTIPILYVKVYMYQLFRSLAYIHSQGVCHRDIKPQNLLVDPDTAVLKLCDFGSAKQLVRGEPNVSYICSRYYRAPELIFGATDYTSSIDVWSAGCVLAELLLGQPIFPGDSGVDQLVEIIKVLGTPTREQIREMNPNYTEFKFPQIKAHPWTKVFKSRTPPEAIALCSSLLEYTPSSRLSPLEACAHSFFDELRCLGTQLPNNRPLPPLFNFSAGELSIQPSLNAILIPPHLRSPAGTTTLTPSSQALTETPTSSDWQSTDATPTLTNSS
# [18] = target: Interferon-induced, double-stranded RNA-activated protein kinase (Homo sapiens, UniProt P19525); experiment: Inhibition of PKR in human HeLa cells lysate at 2 uM pre incubated for 15 mins followed by ADP acyl phosphate probe addition and measured after 10 mins by LC-MS/MS analysis relative to control; assay type: subcellular; conditions: time 25.0 min
# Chain of Interferon-induced, double-stranded RNA-activated protein kinase (P19525 whole entry): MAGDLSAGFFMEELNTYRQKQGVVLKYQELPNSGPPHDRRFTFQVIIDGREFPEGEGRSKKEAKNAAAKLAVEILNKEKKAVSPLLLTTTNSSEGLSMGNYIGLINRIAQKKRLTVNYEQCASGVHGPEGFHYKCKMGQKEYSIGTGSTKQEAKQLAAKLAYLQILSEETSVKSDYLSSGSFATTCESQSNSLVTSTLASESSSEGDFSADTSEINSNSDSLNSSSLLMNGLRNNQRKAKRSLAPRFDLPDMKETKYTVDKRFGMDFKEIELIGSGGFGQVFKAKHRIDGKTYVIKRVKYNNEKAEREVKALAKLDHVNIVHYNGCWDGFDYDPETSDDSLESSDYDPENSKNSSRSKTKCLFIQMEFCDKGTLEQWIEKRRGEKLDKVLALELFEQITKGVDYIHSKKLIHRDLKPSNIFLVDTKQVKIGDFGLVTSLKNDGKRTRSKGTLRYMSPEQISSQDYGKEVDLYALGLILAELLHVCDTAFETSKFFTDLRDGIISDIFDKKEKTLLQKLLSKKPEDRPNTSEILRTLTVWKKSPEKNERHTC
smiles,measurement,setting,value
CCOc1cc(N2CCC(O)CC2)ccc1Nc1ncc2c(n1)N(C)c1ccccc1C(=O)N2C,inhibition,[1],-6.5%
same,IC50,[2],34 µM
same,inhibition,[3],13.5%
same,inhibition at 2 µM,[4],-4.6%
same,inhibition,[5],8%
same,IC50,[6],> 50 µM
same,inhibition at 10 µM,[7],18.1%
same,IC50,[8],> 50 µM
same,inhibition,[9],6.4%
same,inhibition,[10],-7.1%
same,inhibition,[11],0.7%
same,inhibition,[12],-2.7%
same,inhibition,[13],-9.7%
same,IC50,[14],> 50 µM
same,inhibition,[15],-4%
same,IC50,[16],> 50 µM
same,inhibition,[17],-5.5%
same,inhibition,[18],8.4%
